US8993542B2, “Methods of treating viral infections” (priority 2008, dated 2015)
Where two headings read alike, the source gives them in different places.

Key:
[1] = Toxicokinetics and 7-day toxicity after oral administration of CMX157 to rats; format: in vivo; details: for AUC0-24 / Cmax / Tmax / AUC(0-t) / AUC0-∞ / t1/2elim: rat plasma; for AUC(0-t): read-out: AUC0-24
HIV-1IIIB = experiment: TCID50 determination of drug-treated HIV-1IIIB; format: cell-based; set-up: TCID50, XTT Endpoint / TCID50, RT Endpoint / TCID50, P24 Endpoint: unit not given here
[2] = 500 nM, compound removal at 1 minute
[3] = 500 nM, compound removal at 15 minutes
[4] = 500 nM, compound removal at 30 minutes
[5] = 500 nM, compound removal at 60 minutes
[6] = 500 nM, compound removal at 120 minute
[7] = virus treated 15 minutes with 0.039 nM drug
[8] = virus treated 15 minutes with 0.125 nM drug
[9] = virus treated 15 minutes with 0.39 nM drug
[10] = virus treated 15 minutes with 1.25 nM drug

CCCCCCCCCCCCCCCCOCCCOP(=O)(O)CO[C@H](C)Cn1cnc2c(N)ncnc21 [CMX157, Hexadecyloxypropyl-9-R-[2-(Phosphonomethoxy)Propyl]-Adenine]
AUC0-24 ([1]; oral CMX157 10 mg/kg, day 1): 441.7 ng·h/mL
Cmax ([1]; oral CMX157 10 mg/kg, day 1): 0.08485 µg/mL
Tmax ([1]; oral CMX157 10 mg/kg, day 1): 0.5 h
Cmax ([1]; oral CMX157 10 mg/kg, day 7): 0.1109 µg/mL
Tmax ([1]; oral CMX157 10 mg/kg, day 7): 0.5 h
AUC(0-t) ([1]; oral CMX157 10 mg/kg, day 7): 0.435 µg·h/mL
AUC0-24 ([1]; oral CMX157 30 mg/kg, day 1): 1,832.8 ng · h/ml
Cmax ([1]; oral CMX157 30 mg/kg, day 1): 0.379 µg/mL
Tmax ([1]; oral CMX157 30 mg/kg, day 1): 2.0 h
Cmax ([1]; oral CMX157 30 mg/kg, day 7): 0.2025 µg/mL
Tmax ([1]; oral CMX157 30 mg/kg, day 7): 1.0 h
AUC(0-t) ([1]; oral CMX157 30 mg/kg, day 7): 1.54 µg·h/mL
AUC0-24 ([1]; oral CMX157 100 mg/kg, day 1): 5,408 ng · h/ml
AUC0-∞ ([1]; oral CMX157 100 mg/kg, day 1): 5,429.8 ng · h/ml
Cmax ([1]; oral CMX157 100 mg/kg, day 1): 0.905 µg/mL
Tmax ([1]; oral CMX157 100 mg/kg, day 1): 2.0 h
t1/2elim ([1]; oral CMX157 100 mg/kg, day 1): 2.5 h
AUC0-∞ ([1]; oral CMX157 100 mg/kg, day 7): 8,050.6 ng · h/ml
Cmax ([1]; oral CMX157 100 mg/kg, day 7): 0.6855 µg/mL
Tmax ([1]; oral CMX157 100 mg/kg, day 7): 2.0 h
t1/2elim ([1]; oral CMX157 100 mg/kg, day 7): 1.6 h
AUC(0-t) ([1]; oral CMX157 100 mg/kg, day 7): 8.05 µg·h/mL
no-observed-adverse-effect level ([1]; rats, 7 days, highest dose tested): up to 100 mg/kg/day
Fold Decrease From VC, P24 Endpoint (HIV-1IIIB; [2]): (8.0) Fold
Fold Decrease From VC, RT Endpoint (HIV-1IIIB; [2]): (5.2) Fold
Fold Decrease From VC, XTT Endpoint (HIV-1IIIB; [2]): (2.2) Fold
TCID50, P24 Endpoint (HIV-1IIIB; [2]): 4529
TCID50, RT Endpoint (HIV-1IIIB; [2]): 25588
TCID50, XTT Endpoint (HIV-1IIIB; [2]): 2014
Fold Decrease From VC, P24 Endpoint (HIV-1IIIB; [3]): (5.7) Fold
Fold Decrease From VC, RT Endpoint (HIV-1IIIB; [3]): (3.6) Fold
Fold Decrease From VC, XTT Endpoint (HIV-1IIIB; [3]): (4.0) Fold
TCID50, P24 Endpoint (HIV-1IIIB; [3]): 6398
TCID50, RT Endpoint (HIV-1IIIB; [3]): 18115
TCID50, XTT Endpoint (HIV-1IIIB; [3]): 1132
Fold Decrease From VC, P24 Endpoint (HIV-1IIIB; [4]): (2.0) Fold
Fold Decrease From VC, RT Endpoint (HIV-1IIIB; [4]): (2.8) Fold
Fold Decrease From VC, XTT Endpoint (HIV-1IIIB; [4]): (2.0) Fold
TCID50, P24 Endpoint (HIV-1IIIB; [4]): 18115
TCID50, RT Endpoint (HIV-1IIIB; [4]): 22805
TCID50, XTT Endpoint (HIV-1IIIB; [4]): 2014
Fold Decrease From VC, P24 Endpoint (HIV-1IIIB; [5]): (4.0) Fold
Fold Decrease From VC, RT Endpoint (HIV-1IIIB; [5]): (3.4) Fold
Fold Decrease From VC, XTT Endpoint (HIV-1IIIB; [5]): (2.5) Fold
TCID50, P24 Endpoint (HIV-1IIIB; [5]): 9058
TCID50, RT Endpoint (HIV-1IIIB; [5]): 25588
TCID50, XTT Endpoint (HIV-1IIIB; [5]): 1600
Fold Decrease From VC, P24 Endpoint (HIV-1IIIB; [6]): (5.7) Fold
Fold Decrease From VC, RT Endpoint (HIV-1IIIB; [6]): (3.2) Fold
Fold Decrease From VC, XTT Endpoint (HIV-1IIIB; [6]): (4.0) Fold
TCID50, P24 Endpoint (HIV-1IIIB; [6]): 6398
TCID50, RT Endpoint (HIV-1IIIB; [6]): 25588
TCID50, XTT Endpoint (HIV-1IIIB; [6]): 1132
concentrations resulting in reduced infectivity (HIV-1IIIB; 15 minutes incubation): ≥ 3.9 nM
reduction of viral replication (HIV-1IIIB; 1000, 500, 250 or 125 nM, 2 hours): 2-4 fold
Fold Decrease From VC, P24 Endpoint (HIV-1IIIB; [7]): (0) Fold
Fold Decrease From VC, RT Endpoint (HIV-1IIIB; [7]): (1.0) Fold
Fold Decrease From VC, XTT Endpoint (HIV-1IIIB; [7]): (1.1) Fold
TCID50, P24 Endpoint (HIV-1IIIB; [7]): 36337
TCID50, RT Endpoint (HIV-1IIIB; [7]): 157772
TCID50, XTT Endpoint (HIV-1IIIB; [7]): 16145
Fold Decrease From VC, P24 Endpoint (HIV-1IIIB; [8]): (0) Fold
Fold Decrease From VC, RT Endpoint (HIV-1IIIB; [8]): (1.1) Fold
Fold Decrease From VC, XTT Endpoint (HIV-1IIIB; [8]): (1.1) Fold
TCID50, P24 Endpoint (HIV-1IIIB; [8]): 30411
TCID50, RT Endpoint (HIV-1IIIB; [8]): 144887
TCID50, XTT Endpoint (HIV-1IIIB; [8]): 16145
Fold Decrease From VC, P24 Endpoint (HIV-1IIIB; [9]): (1.4) Fold
Fold Decrease From VC, RT Endpoint (HIV-1IIIB; [9]): (1.6) Fold
Fold Decrease From VC, XTT Endpoint (HIV-1IIIB; [9]): (1.4) Fold
TCID50, P24 Endpoint (HIV-1IIIB; [9]): 21529
TCID50, RT Endpoint (HIV-1IIIB; [9]): 102336
TCID50, XTT Endpoint (HIV-1IIIB; [9]): 12795
Fold Decrease From VC, P24 Endpoint (HIV-1IIIB; [10]): (0) Fold
Fold Decrease From VC, RT Endpoint (HIV-1IIIB; [10]): (1.6) Fold
Fold Decrease From VC, XTT Endpoint (HIV-1IIIB; [10]): (2.0) Fold
TCID50, P24 Endpoint (HIV-1IIIB; [10]): 30411
TCID50, RT Endpoint (HIV-1IIIB; [10]): 102336
TCID50, XTT Endpoint (HIV-1IIIB; [10]): 9058
